Measured values taken from patent US20220089578A1, “COMPOUNDS AS GLP-1R AGONISTS” (Terns Pharmaceuticals, Inc., priority 2020, published 2022).

Target: human GLP-1R (Homo sapiens, UniProt P43220)
Experiment: GLP-1R Cell Assay 1: cAMP Hunter CHO-K1 GLP1R Gs cell line, HitHunter cAMP assay
Format: cell-based
Conditions: cAMP Hunter CHO-K1 GLP1R Gs cells, percent activity normalized to Exendin-4
Summary of the method: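 Luminescent enzyme-fragment-complementation immunoassay quantified cellular cAMP after 30-60 min compound exposure at 37 °C in HBSS/10 mM HEPES. Data from duplicate runs were normalised to Exendin-4 and fitted nonlinearly for EC50.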

Sequence of human GLP-1R (P43220 24-463): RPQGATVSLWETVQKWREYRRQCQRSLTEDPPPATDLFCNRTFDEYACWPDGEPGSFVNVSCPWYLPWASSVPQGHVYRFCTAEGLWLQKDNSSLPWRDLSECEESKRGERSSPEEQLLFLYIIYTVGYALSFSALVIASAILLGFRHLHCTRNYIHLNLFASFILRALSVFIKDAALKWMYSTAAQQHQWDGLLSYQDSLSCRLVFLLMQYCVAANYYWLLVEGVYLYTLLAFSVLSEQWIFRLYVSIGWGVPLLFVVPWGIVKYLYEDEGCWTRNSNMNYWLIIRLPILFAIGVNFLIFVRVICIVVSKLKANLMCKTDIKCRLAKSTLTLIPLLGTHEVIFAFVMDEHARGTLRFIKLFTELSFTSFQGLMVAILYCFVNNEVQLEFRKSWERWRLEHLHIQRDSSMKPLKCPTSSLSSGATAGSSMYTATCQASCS

| Compound | EC50 (Table 2) [nM] | EC50 (Table 3) [nM] |
| --- | --- | --- |
| C[C@]1(c2cccc(OCc3ccc(C#N)cc3F)n2)CCN(Cc2nc3ccc(C(=O)O)cc3n2C[C@@H]2CCO2)C1 (single isomer, unassigned) [Compound 20-P2] | 166 |  |
| O=C(O)c1ccc2nc(CN3CCC(n4cc5cccc(Oc6ccccc6)c5n4)CC3)n(C[C@@H]3CCO3)c2c1 [Compound 159, (S)-1-(oxetan-2-ylmethyl)-2-((4-(7-phenoxy-2H-indazol-2-yl)piperidin-1-yl)methyl)-1H-benzo[d]imidazole-6-carboxylic acid] |  | > 500 |
| N#Cc1ccc2c(c1)CCC[C@@H]2Oc1cccc(C2CCN(Cc3nc4ccc(C(=O)O)cc4n3C[C@@H]3CCO3)CC2)n1 (single isomer, unassigned) [Compound 146-P2] |  | 7.02 |
| N#Cc1ccc2c(c1)CN(c1cccc(N3CCN(Cc4nc5ccc(C(=O)O)cc5n4C[C@@H]4CCO4)CC3)n1)C2 [Compound 57, (S)-2-((4-(6-(5-cyanoisoindolin-2-yl)pyridin-2-yl)piperazin-1-yl)methyl)-1-(oxetan-2-ylmethyl)-1H-benzo[d]imidazole-6-carboxylic acid] | > 500 |  |
| N#Cc1cccc2c1CCCN2c1cccc(N2CCN(Cc3nc4ccc(C(=O)O)cc4n3C[C@@H]3CCO3)CC2)n1 [Compound 5, (S)-2-((4-(6-(5-cyano-3,4-dihydroquinolin-1(2H)-yl)pyridin-2-yl)piperazin-1-yl)methyl)-1-(oxetan-2-ylmethyl)-1H-benzo[d]imidazole-6-carboxylic acid] | 315 |  |
| Cc1cc(OCc2ccccc2)nn1C1CCN(Cc2nc3ccc(C(=O)O)cc3n2C[C@@H]2CCO2)CC1 [Compound 21, (S)-2-((4-(3-(benzyloxy)-5-methyl-1H-pyrazol-1-yl)piperidin-1-yl)methyl)-1-(oxetan-2-ylmethyl)-1H-benzo[d]imidazole-6-carboxylic acid] | 2770 |  |
| O=C(O)c1ccc2nc(CN3CCC(c4cccc5c4CC(=O)N(c4ccccc4)C5)CC3)n(C[C@@H]3CCO3)c2c1 [Compound 152, (S)-1-(oxetan-2-ylmethyl)-2-((4-(3-oxo-2-phenyl-1,2,3,4-tetrahydroisoquinolin-5-yl)piperidin-1-yl)methyl)-1H-benzo[d]imidazole-6-carboxylic acid] |  | > 500 |
| N#Cc1ccc2c(c1)CCN(c1cccc(N3CCN(Cc4nc5ccc(C(=O)O)cc5n4C[C@@H]4CCO4)CC3)n1)CC2 [Compound 2, (S)-2-((4-(6-(7-cyano-4,5-dihydro-1H-benzo[d]azepin-3(2H)-yl)pyridin-2-yl)piperazin-1-yl)methyl)-1-(oxetan-2-ylmethyl)-1H-benzo[d]imidazole-6-carboxylic acid] | > 500 |  |
| N#Cc1ccc(COc2cccc([C@]34CCN(Cc5nc6ccc(C(=O)O)cc6n5C[C@@H]5CCO5)C[C@H]3C4)n2)c(F)c1 [Compound 9-P2, 2-(((1S,6R)-6-(6-((4-cyano-2-fluorobenzyl)oxy)pyridin-2-yl)-3-azabicyclo[4.1.0]heptan-3-yl)methyl)-1-((S)-oxetan-2-ylmethyl)-1H-benzo[d]imidazole-6-carboxylic acid] | 0.494 |  |
| CS(=O)(=O)N1CC(COc2cccc(N3CCN(Cc4nc5ccc(C(=O)O)cc5n4C[C@@H]4CCO4)CC3)n2)C1 [Compound 56, (S)-2-((4-(6-((1-(methylsulfonyl)azetidin-3-yl)methoxy)pyridin-2-yl)piperazin-1-yl)methyl)-1-(oxetan-2-ylmethyl)-1H-benzo[d]imidazole-6-carboxylic acid] | > 500 |  |
| N#Cc1ccc2c(c1)CN(c1ccn(C3CCN(Cc4nc5ccc(C(=O)O)cc5n4C[C@@H]4CCO4)CC3)n1)CC2 [Compound 25, (S)-2-((4-(3-(7-cyano-3,4-dihydroisoquinolin-2(1H)-yl)-1H-pyrazol-1-yl)piperidin-1-yl)methyl)-1-(oxetan-2-ylmethyl)-1H-benzo[d]imidazole-6-carboxylic acid] | > 500 |  |
| CCn1cncc1Cn1c(CN2CCC(c3cccc(OCc4nc5ccc(C#N)cc5s4)n3)CC2)nc2ccc(C(=O)O)cc21 [Compound 165, 2-((4-(6-((6-cyanobenzo[d]thiazol-2-yl)methoxy)pyridin-2-yl)piperidni-1-yl)methyl)-1-((1-ethyl-1H-imidazol-5-yl)methyl)-1H-benzo[d]imidazole-6-carboxylic acid] |  | 0.0254 |

Further lines, results first:

| EC50 (Table 2) [nM] | EC50 (Table 3) [nM] | Compound |
| --- | --- | --- |
| 82.1 |  | O=C(O)c1ccc2nc(CN3CCN(c4cccc(OCCC5CCCCC5)n4)CC3)n(C[C@@H]3CCO3)c2c1 [Compound 44, (S)-2-((4-(6-(2-cyclohexylethoxy)pyridin-2-yl)piperazin-1-yl)methyl)-1-(oxetan-2-ylmethyl)-1H-benzo[d]imidazole-6-carboxylic acid] |
| 135 |  | N#Cc1ccc2c(c1)CN(c1cccc(N3CCN(Cc4nc5ccc(C(=O)O)cc5n4C[C@@H]4CCO4)CC3)n1)CCC2 [Compound 66, (S)-2-((4-(6-(8-cyano-1,3,4,5-tetrahydro-2H-benzo[c]azepin-2-yl)pyridin-2-yl)piperazin-1-yl)methyl)-1-(oxetan-2-ylmethyl)-1H-benzo[d]imidazole-6-carboxylic acid] |
| 15.7 |  | Cn1c(COc2cccc(N3CCN(Cc4nc5ccc(C(=O)O)cc5n4C[C@@H]4CCO4)CC3)n2)nc2ccccc21 [Compound 71, (S)-2-((4-(6-((1-methyl-1H-benzo[d]imidazol-2-yl)methoxy)pyridin-2-yl)piperazin-1-yl)methyl)-1-(oxetan-2-ylmethyl)-1H-benzo[d]imidazole-6-carboxylic acid] |
| 9.05 |  | Cn1cnc2cc(COc3cccc(N4CCN(Cc5nc6ccc(C(=O)O)cc6n5C[C@@H]5CCO5)CC4)n3)ccc21 [Compound 3, (S)-2-((4-(6-((1-methyl-1H-benzo[d]imidazol-5-yl)methoxy)pyridin-2-yl)piperazin-1-yl)methyl)-1-(oxetan-2-ylmethyl)-1H-benzo[d]imidazole-6-carboxylic acid] |
| 109 |  | N#Cc1ccc(COc2nn(C3CCN(Cc4nc5ccc(C(=O)O)cc5n4C[C@@H]4CCO4)CC3)cc2CO)c(F)c1 [Compound 136, (S)-2-((4-(3-((4-cyano-2-fluorobenzyl)oxy)-4-(hydroxymethyl)-1H-pyrazol-1-yl)piperidin-1-yl)methyl)-1-(oxetan-2-ylmethyl)-1H-benzo[d]imidazole-6-carboxylic acid] |
| 7.7 |  | O=C(O)c1ccc2nc(CN3CCN(c4cccc(OCc5cccnc5)n4)CC3)n(C[C@@H]3CCO3)c2c1 [Compound 53, (S)-1-(oxetan-2-ylmethyl)-2-((4-(6-(pyridin-3-ylmethoxy)pyridin-2-yl)piperazin-1-yl)methyl)-1H-benzo[d]imidazole-6-carboxylic acid] |
| 4.88 |  | N#Cc1ccc(COc2nn(C3CCN(Cc4nc5ccc(C(=O)O)cc5n4C[C@@H]4CCO4)CC3)cc2C(F)F)c(F)c1 [Compound 135, (S)-2-((4-(3-((4-cyano-2-fluorobenzyl)oxy)-4-(difluoromethyl)-1H-pyrazol-1-yl)piperidin-1-yl)methyl)-1-(oxetan-2-ylmethyl)-1H-benzo[d]imidazole-6-carboxylic acid] |
| 2.78 |  | O=C(O)c1ccc2nc(CN3CCN(c4cccc(OCc5ccc6ccccc6n5)n4)CC3)n(C[C@@H]3CCO3)c2c1 [Compound 82, (S)-1-(oxetan-2-ylmethyl)-2-((4-(6-(quinolin-2-ylmethoxy)pyridin-2-yl)piperazin-1-yl)methyl)-1H-benzo[d]imidazole-6-carboxylic acid] |
| 34 |  | N#Cc1ccc(COc2nn(C3CCN(Cc4nc5ccc(C(=O)O)cc5n4C[C@@H]4CCO4)CC3)cc2C2CC2)c(F)c1 [Compound 132, (S)-2-((4-(3-((4-cyano-2-fluorobenzyl)oxy)-4-cyclopropyl-1H-pyrazol-1-yl)piperidin-1-yl)methyl)-1-(oxetan-2-ylmethyl)-1H-benzo[d]imidazole-6-carboxylic acid] |
| 0.221 |  | O=C(O)c1ccc2nc(CN3CCN(c4cccc(OCc5ccc(Cl)cn5)n4)CC3)n(C[C@@H]3CCO3)c2c1 [Compound 58, (S)-2-((4-(6-((5-chloropyridin-2-yl)methoxy)pyridin-2-yl)piperazin-1-yl)methyl)-1-(oxetan-2-ylmethyl)-1H-benzo[d]imidazole-6-carboxylic acid] |
| 37.9 |  | N#Cc1cccc2c1CN(c1cccc(N3CCN(Cc4nc5ccc(C(=O)O)cc5n4C[C@@H]4CCO4)CC3)n1)CCC2 [Compound 80, (S)-2-((4-(6-(9-cyano-1,3,4,5-tetrahydro-2H-benzo[c]azepin-2-yl)pyridin-2-yl)piperazin-1-yl)methyl)-1-(oxetan-2-ylmethyl)-1H-benzo[d]imidazole-6-carboxylic acid] |
| 16.3 |  | N#Cc1ccc(Cn2ncc3ccc(N4CCN(Cc5nc6ccc(C(=O)O)cc6n5C[C@@H]5CCO5)CC4)nc32)c(F)c1 [Compound 30, (S)-2-((4-(1-(4-cyano-2-fluorobenzyl)-1H-pyrazolo[3,4-b]pyridin-6-yl)piperazin-1-yl)methyl)-1-(oxetan-2-ylmethyl)-1H-benzo[d]imidazole-6-carboxylic acid] |
| 2.17 |  | O=C(O)c1ccc2nc(CN3CCN(c4cccc(OCc5ccc6ncoc6c5)n4)CC3)n(C[C@@H]3CCO3)c2c1 [Compound 75, (S)-2-((4-(6-(benzo[d]oxazol-6-ylmethoxy)pyridin-2-yl)piperazin-1-yl)methyl)-1-(oxetan-2-ylmethyl)-1H-benzo[d]imidazole-6-carboxylic acid] |
| 0.849 |  | O=C(O)c1ccc2nc(CN3CCN(c4cccc(OCc5nc6ccccc6o5)n4)CC3)n(C[C@@H]3CCO3)c2c1 [Compound 67, (S)-2-((4-(6-(benzo[d]oxazol-2-ylmethoxy)pyridin-2-yl)piperazin-1-yl)methyl)-1-(oxetan-2-ylmethyl)-1H-benzo[d]imidazole-6-carboxylic acid] |
| 75.3 |  | Cn1cc(COc2cccc(N3CCN(Cc4nc5ccc(C(=O)O)cc5n4C[C@@H]4CCO4)CC3)n2)cn1 [Compound 86, (S)-2-((4-(6-((1-methyl-1H-pyrazol-4-yl)methoxy)pyridin-2-yl)piperazin-1-yl)methyl)-1-(oxetan-2-ylmethyl)-1H-benzo[d]imidazole-6-carboxylic acid] |
